Measured values from ChEMBL document CHEMBL1145318, “Amide-substituted farnesylcysteine analogs as inhibitors of human isoprenylcysteine carboxyl methyltransferase” (Bioorg Med Chem Lett, 2006).

Key:
[1] = biological target: T1, Protein-S-isoprenylcysteine O-methyltransferase (Homo sapiens, UniProt O60725); test: Inhibition of human Icmt by methanol vapour diffusion assay
[2] = biological target: T1, Protein-S-isoprenylcysteine O-methyltransferase; test: Inhibition of human Icmt in Saccharomyces cerevisiae cell membrane relative to control by SPA; values are per cent of control; set-up: concentration or dose not given beside the values

T1 sequence (O60725 whole entry, the tested form may be a part): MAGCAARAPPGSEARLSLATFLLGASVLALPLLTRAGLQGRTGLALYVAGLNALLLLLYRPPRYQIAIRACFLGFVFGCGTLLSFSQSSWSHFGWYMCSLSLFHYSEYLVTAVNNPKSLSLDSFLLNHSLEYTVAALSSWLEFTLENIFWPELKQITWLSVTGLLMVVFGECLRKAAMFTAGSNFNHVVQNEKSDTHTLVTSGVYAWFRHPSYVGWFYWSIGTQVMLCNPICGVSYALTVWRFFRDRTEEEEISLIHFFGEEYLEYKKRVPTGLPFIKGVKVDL

Structure (SMILES) | IC50 [1] [µM] | residual activity [2] [%]
CC(C)=CCC/C(C)=C/CC/C(C)=C/CSC[C@H](NC(=O)c1cc2ccccc2s1)C(=O)O | 20.3 | 28
CC(C)=CCC/C(C)=C/CC/C(C)=C/CSC[C@H](NC(=O)c1cc(Cl)cc(Cl)c1)C(=O)O | 23 | 33.5
COc1ccc(-c2ccc(C(=O)N[C@@H](CSC/C=C(\C)CC/C=C(\C)CCC=C(C)C)C(=O)O)o2)cc1 | 17.4 | 35.1

The next compounds have a lower IC50 [1] than those just listed; values first:

IC50 [1] [µM] | residual activity [2] [%] | Structure (SMILES)
16.6 | 50.1 | CC(C)=CCC/C(C)=C/CC/C(C)=C/CSC[C@H](NC(=O)c1ccc([N+](=O)[O-])cc1)C(=O)O
14.3 | 37.1 | CC(C)=CCC/C(C)=C/CC/C(C)=C/CSC[C@H](NC(=O)c1cc([N+](=O)[O-])cc([N+](=O)[O-])c1)C(=O)O
